Results from US8119633B2, “Substituted sulfonamide compounds” (Gruenenthal GmbH, priority 2007, dated 2012).

Columns and labels:
[1] = target: T1, bradykinin receptor 1 (B1R) of the rat (Rattus norvegicus, UniProt P97583); assay: Functional study on the bradykinin receptor 1 (B1R), rat: FLIPR Ca2+ influx assay; format: cell-based; conditions: test substance 10 μM; CHO K1 cells transfected with rat B1R; Des-Arg9-bradykinin at EC80; Ca2+ influx (Fluo-4, FLIPR); read-out: B1R antagonism, rat [10 μM] % inhibition
T1 construct: expressed in transfected cells; host or cells: CHO K1 cells
T1 sequence (P97583 1-337): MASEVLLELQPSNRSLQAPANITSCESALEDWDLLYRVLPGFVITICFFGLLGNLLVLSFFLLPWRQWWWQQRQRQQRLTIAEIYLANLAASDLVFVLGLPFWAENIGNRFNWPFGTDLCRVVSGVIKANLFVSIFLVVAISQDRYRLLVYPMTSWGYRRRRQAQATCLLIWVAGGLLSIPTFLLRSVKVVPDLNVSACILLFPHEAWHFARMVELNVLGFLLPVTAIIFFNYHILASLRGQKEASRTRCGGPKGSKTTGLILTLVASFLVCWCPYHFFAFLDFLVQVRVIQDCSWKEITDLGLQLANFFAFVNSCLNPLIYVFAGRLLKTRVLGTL
In short: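 CHO K1 cells stably expressing rat B1R, Fluo-4-loaded, read on FLIPR (ex 488/em 540 nm, peak fluorescence). Test substances added first (agonism vs 10 μM Des-Arg9-bradykinin), then after 10-20 min Des-Arg9-bradykinin at EC80; % inhibition and IC50 from concentration series, n=2-3, N≥2.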

[2] = target: T2, human bradykinin receptor 1 (B1R) (Homo sapiens, UniProt P46663); assay: Functional study on the bradykinin receptor 1 (B1R), human: FLIPR Ca2+ influx assay; format: cell-based; conditions: test substance 10 μM; CHO K1 cells transfected with human B1R; Lys-Des-Arg9-bradykinin at EC80; Ca2+ influx (Fluo-4, FLIPR); read-out: B1R antagonism, human [10 μM] % inhibition
T2 construct: expressed in transfected cells; host or cells: CHO K1 cells
T2 sequence (P46663 1-353): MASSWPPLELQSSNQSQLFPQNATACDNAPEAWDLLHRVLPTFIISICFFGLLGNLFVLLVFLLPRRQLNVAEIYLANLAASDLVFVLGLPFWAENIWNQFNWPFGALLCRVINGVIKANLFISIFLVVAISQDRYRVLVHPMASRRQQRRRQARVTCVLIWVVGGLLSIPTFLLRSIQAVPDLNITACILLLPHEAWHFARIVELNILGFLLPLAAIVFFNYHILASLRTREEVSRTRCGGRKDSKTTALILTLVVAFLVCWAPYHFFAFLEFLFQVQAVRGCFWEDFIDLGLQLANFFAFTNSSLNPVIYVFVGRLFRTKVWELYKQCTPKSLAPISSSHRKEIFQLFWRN
In short: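 CHO K1 cells stably expressing human B1R were loaded with Fluo-4, and Ca2+ fluorescence was read on FLIPR (ex 488/em 540 nm). Compound was added first (10 μM for % activation against Lys-Des-Arg9-bradykinin ≥0.5 nM). After 10-20 min, Lys-Des-Arg9-bradykinin was added at EC80 for % inhibition; IC50 came from concentration series, n=2-3, N≥2.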

human μ-opiate receptor = target: T3, human μ-opiate receptor (Homo sapiens, UniProt P35372); assay: Affinity for the human μ-opiate receptor ([3H]-naloxone displacement, SPA); conditions: test substance 1 μmol/l; inhibition of specific [3H]-naloxone binding; CHO-K1 receptor membrane preparation; read-out: μ-Opioid receptor [1 μM] % inhibition
T3 construct: purchased PerkinElmer Life Sciences, Zaventem, Belgium RB-HOM; host or cells: CHO-K1 cells (membrane preparation)
Method: Studies of the Effectiveness of the Compounds According to the Invention Method for determining the affinity for the human μ-opiate receptor
The receptor affinity for the human μ-opiate receptor is determined in a homogeneous batch on microtitre plates. To this end, serial dilutions of the substances to be tested are incubated for 90 minutes at room temperature with a receptor membrane preparation (15-40 μg of protein/250 μl of incubation batch) of CHO-K1 cells, which express the human μ-opiate receptor (RB-HOM receptor membrane preparation from PerkinElmer Life Sciences, Zaventem, Belgium), in the presence of 1 nmol/l of the radioactive ligand [^3H]-naloxone (NET719, PerkinElmer Life Sciences, Zaventem, Belgium) and 1 mg of WGA-SPA beads (wheatgerm agglutinin SPA beads from Amersham/Pharmacia, Freiburg, Germany) in a total volume of 250 μl. The incubation buffer used is 50 mmol/l of Tris-HCl supplemented with 0.06 wt. % bovine serum albumin. In order to determine non-specific binding, 100 μmol/l of naloxone is additionally added. When the ninety-minute incubation time has ended, the microtitre plates are centrifuged off for 20 minutes at 1000 g and the radioactivity is measured in a β-counter (Microbeta-Trilux, PerkinElmer Wallac, Freiburg, Germany). The percentage displacement of the radioactive ligand from its binding to the human μ-opiate receptor at a concentration of the test substances of 1 μmol/l is determined and stated as the percentage inhibition of specific binding. On the basis of the percentage displacement by different concentrations of the test substances, IC50 inhibitory concentrations, which effect 50% displacement of the radioactive ligand, are calculated. Ki values for the test substances are obtained by conversion by means of the Cheng-Prusoff equation.

T3 sequence (P35372 whole entry): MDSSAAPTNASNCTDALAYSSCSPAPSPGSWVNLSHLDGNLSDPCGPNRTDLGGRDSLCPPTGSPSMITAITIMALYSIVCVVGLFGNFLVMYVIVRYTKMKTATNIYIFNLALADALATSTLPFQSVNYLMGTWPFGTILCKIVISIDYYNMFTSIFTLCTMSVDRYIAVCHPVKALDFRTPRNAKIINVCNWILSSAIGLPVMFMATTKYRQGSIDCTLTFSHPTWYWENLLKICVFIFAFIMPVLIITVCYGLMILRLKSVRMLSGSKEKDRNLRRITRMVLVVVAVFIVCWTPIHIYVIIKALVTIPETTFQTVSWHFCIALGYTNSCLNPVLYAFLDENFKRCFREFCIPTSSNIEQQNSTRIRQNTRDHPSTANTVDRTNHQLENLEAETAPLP

Row | SMILES | inhibition at 10 µM [1] [%] | inhibition at 10 µM [2] [%] | inhibition at 1 µM (human μ-opiate receptor) [%]
1 | O=C(CC1C(=O)NCCN1S(=O)(=O)c1ccc(Cl)cc1Cl)NC1CCC(C(CCc2ccccc2)N2CCCCC2)CC1 (stereo not drawn) [Example 59, 2-[1-(2,4-dichloro-benzenesulfonyl)-3-oxo-piperazin-2-yl]-N-[4-(3-phenyl-1-piperidin-1-yl-propyl)-cyclohexyl]-acetamide] | 27 | 104 | 61
2 | O=C(CC1CCCCN1S(=O)(=O)c1ccc(Cl)c(Cl)c1)NCC1CCC(C(c2ccccc2)N2CCCC2)CC1 (stereo not drawn) [Example 85, 2-[1-(3,4-dichloro-benzenesulfonyl)-piperidin-2-yl]-N-[4-(phenyl-pyrrolidin-1-ylmethyl)-cyclohexylmethyl]-acetamide] | 22 | 92.7 | 95
3 | CN1CCN(C(c2ccccc2)C2CCN(C(=O)CC(NS(=O)(=O)c3ccc4ccccc4c3)c3ccccc3)CC2)CC1 (stereo not drawn) [Example 114, N-(3-(4-((4-methylpiperazin-1-yl)(phenyl)methyl)piperidin-1-yl)-3-oxo-1-phenylpropyl)naphthalene-2-sulfonamide] | 71 | 93 | 40
4 | COc1cc(C)c(S(=O)(=O)N(C)CCCNC(=O)NC2CCC(C(c3ccccc3)N3CCCC3)CC2)c(C)c1C (stereo not drawn) [Example 3, 4-Methoxy-2,3,6,N-tetramethyl-N—(3-{3-[4-(phenylpyrrolidin-1-ylmethyl) -cyclohexyl]-ureido}propyl)benzenesulfonamide] | 58 | 80.8 | 71
5 | O=C(CC1CCCN1S(=O)(=O)c1ccc(Cl)c(Cl)c1)N1CCC(C(Cc2ccccc2)N2CCOCC2)CC1 (stereo not drawn) [Example 81, 2-(1-(3,4-dichlorophenylsulfonyl)pyrrolidin-2-yl)-1-(4-(1-morpholino-2-phenylethyl)piperidin-1-yl)ethanone] | 56 | 65.3 | 16
6 | CN1CCN(C(c2ccccc2)C2CCN(C(=O)CC3CCCCN3S(=O)(=O)c3cccc(C(F)(F)F)c3)CC2)CC1 (stereo not drawn) [Example 108, 1-(4-((4-methylpiperazin-1-yl)(phenyl)methyl)piperidin-1-yl)-2-(1-(3-(trifluoromethyl)phenylsulfonyl)piperidin-2-yl)ethanone] | 78 | 97 | 6
7 | O=C(CC1CCCCN1S(=O)(=O)c1ccc(Cl)c(Cl)c1)N1CCC(C(Cc2ccccc2)N2CCOCC2)CC1 (stereo not drawn) [Example 90, 2-(1-(3,4-dichlorophenylsulfonyl)piperidin-2-yl)-1-(4-(1-morpholino-2-phenylethyl)piperidin-1-yl)ethanone] | 17 | 14.4 | 12
8 | Cc1cc(S(=O)(=O)N2CCCCC2CCC(=O)N2CCC(C(c3ccc(F)cc3)N3CCN(C)CC3)CC2)c(C)cc1Cl (stereo not drawn) [Example 121, 3-(1-(4-chloro-2,5-dimethylphenylsulfonyl)piperidin-2-yl)-1-(4-((4-fluorophenyl)(4-methylpiperazin-1-yl)methyl)piperidin-1-yl)propan-1-one] | 58 | 105 | 6
9 | O=C1Nc2ccccc2N(S(=O)(=O)c2ccc(Cl)c(Cl)c2)C1CC(=O)N1CCC(C(c2ccccc2)N2CCOCC2)CC1 (stereo not drawn) [Example 71, 4-(3,4-dichloro-benzenesulfonyl)-3-{2-[4-(morpholin-4-yl-phenyl-methyl)piperidin-1-yl]-2-oxo-ethyl}-3,4-dihydro-1H-quinoxalin-2-one] | 32 | 104 | 12
10 | O=C(CC1C(=O)Nc2ccccc2N1S(=O)(=O)c1ccc(Cl)c(Cl)c1)NC1CCC(C(CCc2ccccc2)N2CCOCC2)CC1 (stereo not drawn) [Example 69, 2-[1-(3,4-dichloro-benzenesulfonyl)-3-oxo-1,2,3,4-tetrahydro-quinoxalin-2-yl]-N-[4-(1-morpholin-4-yl-3-phenyl-propyl)-cyclohexyl]-acetamide] | 19 | 105 | 7
